Measurements as given in patent US20160256460A1, “ACTIVATORS OR STIMULATORS OF SOLUBLE GUANYLATE CYCLASE FOR USE IN TREATING CHRONIC FATIGUE SYNDROME” (BERGEN TEKNOLOGIOVERFØRING AS, priority 2013, published 2016).

System: ME/CFS patient
Assay: Case report: oral riociguate (Adempas) in one ME/CFS patient
Assay type: in vivo, human
Method: It is understood that the examples illustrate the invention further without limiting the same. The patient is a person. They have had ME/CFS for 10 years, starting after a Giardia Lamblia infection. They have a disease severity varying between moderate and mild, but with moderate severity the last month prior to start of Riociguat. They have a typical ME/CFS and fulfils Canadian criteria. […] They started with only 0.5 mg once daily, gradually increasing to 0.5 two times daily after a few days and again to 0.5 mg three times daily on day six. […] The dose was increased to 1 mg+0.5 mg+1 mg starting from day seven and, in addition, starting from day nine increased to 1 mg three times daily. […] They told the clinicians of the improvement of their ME/CFS symptoms. They experienced this improvement to be significant and not within the usual range of symptom variation of their ME/CFS disease the last months.

**Q.** How did the “ME/CFS symptom change reported by the patient” value (after the first six days, at a dose of 2.5 mg per day) turn out when `COC(=O)N(C)c1c(N)nc(-c2nn(Cc3ccccc3F)c3ncccc23)nc1N` [Riociguat, Methyl 4,6-diamino-2-[1-(2-fluorobenzyl)-1H-pyrazolo[3,4-b]pyridine-3-yl]-5-pyrimidinyl(methyl)carbamate] was run?
**A.** The value was “more energy and less fatigue, less brain fog with an improved concentration ability, less hypersensitivity to sound and light, and less feeling of sore throat”.

**Q.** And the “benefit on the ME/CFS symptoms” value (person, moderate ME/CFS, oral 0.5 mg once daily increased to 0.5 mg three times daily on day six, noticed from day six, the next three days)?
**A.** The value was “benefit on the ME/CFS symptoms”.

**Q.** What about the side effects (same patient, dose increased up to 1 mg three times daily from day nine) of the same compound?
**A.** Its side effects is “no clear side effects”.
